Among the data in US8697694B2, “Substituted pyridine and pyrimidine derivatives and their use in treating viral infections” (priority 2008, dated 2014) are EC90 values, retold here.

What is called EC90 is the concentration needed for an effect of 90%.

For the first assay, the system named is HCV replicon cells. The assay can be described thus: Cell-based HCV replicon assay (replicon RNA level by real time PCR, Taqman). Conditions: Hepatitis C virus, 72 h, HCV replicon cells, harvested day 3, replicon RNA by real time PCR; given as number; read-out: EC90 (μM) range. Summed up:
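HCV replicon cells treated 3 days with 10 serial 2-fold compound dilutions (top 25 μM to 1 μM; 0.5% DMSO, 10% FBS). Replicon RNA quantified by multiplex Taqman RT-PCR (NS5B amplicon, GAPDH control); EC50 and EC90 = concentrations giving ΔCT of 1 and 3.2 over baseline.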
(In general: Replicon systems follow genome replication, usually without infectious particles.)
As to `Cc1nc(NCCCF)nc(N[C@@H]2C[C@H](CO)[C@@H](O)[C@H]2O)c1-c1nc2ccccc2s1` [Example 127], the EC90 was found to be 0.7 µM.

`CCCOc1cc2cc(-c3c(C)nc(NCC(F)(F)F)nc3N[C@@H]3C[C@H](CO)[C@@H](O)[C@H]3O)oc2c(C)n1` [Example 34]: the EC90 turned out to be 0.1 µM.

Take `Cc1nc(NCC(F)(F)F)nc(N[C@@H]2C[C@H](COC(=O)N3CCOCC3)[C@@H](O)[C@H]2O)c1-c1nc2ccccc2s1` [Example 63]: the EC90 came to 0.45 µM.

Take `CCN(CC)C(=O)OC[C@H]1C[C@@H](Nc2nc(NCC(F)(F)F)nc(C)c2-c2nc3ccccc3s2)[C@H](O)[C@@H]1O` [Example 65]: the EC90 is 1 µM.

Staying with this assay, now noted: Hepatitis C virus, 72 h, HCV replicon cells, harvested day 3, replicon RNA by real time PCR; reported as range class; read-out: EC90 (μM) range.
As to `Cc1nccc2cc(-c3c(Cl)nc(N)nc3N[C@@H]3C[C@H](CO)[C@@H](O)[C@H]3O)oc12` [Example 305], the EC90 was less than 0.5 µM.

With `CCNc1nc(Cl)c(-c2nc3ccccc3s2)c(N[C@@H]2C[C@H](CO)[C@@H](O)[C@H]2O)n1` [Example 412], the EC90 was less than 0.5 µM.

For the compound `CCc1cc2cc(-c3c(Cl)nc(N)nc3N[C@@H]3C[C@H](CO)[C@@H](O)[C@H]3O)oc2cn1` [Example 406], the 90% effect concentration (EC90) was less than 0.5 µM.

For `Nc1nc(Cl)c(-c2cc3cc(F)cc(F)c3o2)c(N[C@@H]2C[C@H](CO)[C@@H](O)[C@H]2O)n1` [Example 170], the EC90 is more than 5 µM.

On to `OC[C@H]1C[C@@H](Nc2nc(NCCCF)nc(Cl)c2-c2nc3ccccc3s2)[C@H](O)[C@@H]1O` [Example 126], for which the EC90 is less than 0.5 µM.

In the case of `CCOCCNc1nc(Cl)c(-c2nc3ccccc3s2)c(N[C@@H]2C[C@H](CO)[C@@H](O)[C@H]2O)n1` [Example 206], the EC90 was less than 0.5 µM.

`CCOc1ccc2nc(-c3c(C)nc(N(C)C)nc3N[C@@H]3C[C@H](CO)[C@@H](O)[C@H]3O)sc2c1` [Example 207]: the EC90 is more than 5 µM.

Still in this assay, the particulars now being: Hepatitis C virus, 72 h, HCV replicon cells, harvested on day 3, replicon RNA by real time PCR; calculated EC90 reported as range class; read-out: EC90 (μM) range.
For the compound `Cc1nc(NCC2CC2)nc(N[C@@H]2C[C@H](CO)[C@@H](O)[C@H]2O)c1-c1nc2ccccc2s1` [Example 505], the EC90 is less than 0.5 µM.

As for `Cc1nc(NC(C)C)nc(N[C@@H]2C[C@H](CO)[C@@H](O)[C@H]2O)c1-c1nc2ccccc2s1` [Example 427], the EC90 is less than 0.5 µM.

With `CCc1cc2cc(-c3c(C)nc(NCc4nccs4)nc3N[C@@H]3C[C@H](CO)[C@H]4OC(C)(C)O[C@H]43)oc2cn1` [Example 341], the EC90 was less than 0.5 µM.

As for `CNc1ccc2sc(-c3c(C)nc(NCC(F)(F)F)nc3N[C@@H]3C[C@H](CO)[C@@H](O)[C@H]3O)nc2c1` [Example 260], the EC90 is less than 0.5 µM.

For `CCOCCNc1nc(C)c(-c2nc(C)c(C)s2)c(N[C@@H]2C[C@H](CO)[C@@H](O)[C@H]2O)n1` [Example 137], the EC90 was 0.5 to 5 µM.

On to `Cc1nc(NC2CCOCC2)nc(N[C@@H]2C[C@H](CO)[C@@H](O)[C@H]2O)c1-c1nc2ccccc2s1` [Example 425], for which the EC90 is less than 0.5 µM.

On to `COc1cc(CNc2nc(C)c(-c3cc4cc(OC)nc(C)c4o3)c(N[C@@H]3C[C@H](CO)[C@H]4OC(C)(C)O[C@H]43)n2)cc(OC)c1` [Example 347], for which the EC90 is less than 0.5 µM.

On to `CCc1cc2cc(-c3c(C)nc(NCc4cc(C)on4)nc3N[C@@H]3C[C@H](CO)[C@@H](O)[C@H]3O)oc2cn1` [Example 703], for which the EC90 is less than 0.5 µM.

Consider `Cc1nc(NCc2ccc(F)cc2)nc(N[C@@H]2C[C@H](CO)[C@@H](O)[C@H]2O)c1-c1nc2ccccc2s1` [Example 238], for which the EC90 is less than 0.5 µM.

On to `Cc1nc(NCC(F)(F)F)nc(N[C@@H]2C[C@H](CO)[C@@H](O)[C@H]2O)c1-c1cc2cc(C(F)(F)F)ncc2o1` [Example 142], for which the EC90 was 0.5 to 5 µM.

Regarding `CCc1cc2cc(-c3c(C)nc(NCc4cc(OC)cc(OC)c4)nc3N[C@@H]3C[C@H](CO)[C@@H](O)[C@H]3O)oc2cn1` [Example 346], the EC90 is less than 0.5 µM.

Take `CC(C)Nc1nc(Cl)c(-c2nc3ccccc3s2)c(N[C@@H]2C[C@H](CO)[C@@H](O)[C@H]2O)n1` [Example 426]: the EC90 is less than 0.5 µM.

As for `CCC(C)(C)Nc1nc(C)c(-c2nc3ccccc3s2)c(N[C@@H]2C[C@H](CO)[C@@H](O)[C@H]2O)n1` [Example 513], the EC90 was less than 0.5 µM.

Take `Cc1ccsc1CNc1nc(C)c(-c2nc3ccccc3s2)c(N[C@@H]2C[C@H](CO)[C@H]3OC(C)(C)O[C@H]32)n1` [Example 476]: the EC90 is less than 0.5 µM.

`Cc1csc(CNc2nc(C)c(-c3nc4ccccc4s3)c(N[C@@H]3C[C@H](CO)[C@@H](O)[C@H]3O)n2)n1` [Example 707]: the EC90 is less than 0.5 µM.

The same assay, now with this note: Hepatitis C virus, 72 h, HCV replicon cells, replicon RNA level by real time PCR (Taqman), day 3; calculated EC90; read-out: EC90 (μM) range.
Consider `Cc1nc(NCC(F)(F)F)nc(N[C@@H]2C[C@H](CO)[C@H]3OC(C)(C)O[C@H]32)c1-c1nc2cnccc2o1` [Example 2002], for which the EC90 is more than 5 µM.

Regarding `Cc1nc(NCCc2ccc(C(C)(C)C)cc2)nc(N[C@@H]2C[C@H](CO)[C@H]3OC(C)(C)O[C@H]32)c1-c1nc2cnccc2s1` [Example 2011], the EC90 is more than 5 µM.

Staying with this assay, now noted: Hepatitis C virus, 72 h, HCV replicon cells, replicon RNA level by real time PCR (Taqman), harvested on day 3; calculated EC90 reported as range class; read-out: EC90 (μM) range.
On to `COCCNC[C@H]1C[C@@H](Nc2nc(NCC(F)(F)F)nc(C)c2-c2nc3ccccc3s2)[C@H](O)[C@@H]1O` [Example 1069], for which the EC90 is 0.5 to 5 µM.

Turning to `Cc1nc(Nc2ccncc2)nc(N[C@@H]2C[C@H](CO)[C@@H](O)[C@H]2O)c1-c1nc2ccccc2s1` [Example 1051], the EC90 is 0.5 to 5 µM.

`Cc1nc(NCc2cccc(N)c2)nc(N[C@@H]2C[C@H](CO)[C@@H](O)[C@H]2O)c1-c1nc2ccccc2s1` [Example 1112]: the EC90 is 0.5 to 5 µM.

For the compound `CCNc1nc(C)c(-c2nc3ccccc3s2)c(N[C@@H]2CC(C(C)(F)F)[C@@H](O)[C@H]2O)n1` (single isomer, unassigned) [Example 1074], the EC90 is 0.5 to 5 µM.

For `COc1cc(OC)cc([C@@H](C)Nc2nc(C)c(-c3nc4cnccc4s3)c(N[C@@H]3C[C@H](CO)[C@@H](O)[C@H]3O)n2)c1` [Example 1307], the EC90 is less than 0.5 µM.

Take `Cc1cc2cc(-c3c(C)nc(NCC(F)(F)F)nc3N[C@@H]3C[C@H](CO)[C@@H](O)[C@H]3O)oc2c(OC(C)C)n1` [Example 1247]: the EC90 was less than 0.5 µM.

On to `Cc1nc(Nc2cccc(OCc3ccccc3)c2)nc(N[C@@H]2C[C@H](CO)[C@@H](O)[C@H]2O)c1-c1nc2ccccc2s1` [Example 1231], for which the EC90 was 0.5 to 5 µM.

`Cc1nc(NCC2CC2)nc(N[C@@H]2C[C@H](CO)[C@@H](O)[C@H]2O)c1-c1nc2ccccc2n1C` [Example 530]: the EC90 is more than 5 µM.

On to `Cc1nc(NCC(F)(F)F)nc(N[C@@H]2C[C@H](CN(C)C)[C@@H](O)[C@H]2O)c1-c1nc2ccccc2s1` [Example 1016], for which the EC90 is 0.5 to 5 µM.

With `CCOCCNc1nc(C)c(-c2nc3ccccc3n2C)c(N[C@@H]2C[C@H](CO)[C@@H](O)[C@H]2O)n1` [Example 531], the EC90 was more than 5 µM.

`COc1cccc(Nc2nc(C)c(-c3nc4ccccc4s3)c(N[C@@H]3C[C@H](CO)[C@@H](O)[C@H]3O)n2)c1OC` [Example 1129]: the EC90 was more than 5 µM.

As to `COc1cc(CNc2nc(C)c(-c3nc4ccccc4s3)c(N[C@@H]3C[C@H](CO)[C@@H](O)C3)n2)cc(OC)c1` [Example 1241], the EC90 is less than 0.5 µM.

Take `Cc1ccc([C@@H](C)Nc2nc(C)c(-c3nc4ccccc4s3)c(N[C@@H]3C[C@H](CO)[C@@H](O)[C@H]3O)n2)cc1` [Example 1234]: the EC90 is more than 5 µM.

`CCOCCNc1nc(C)c(-c2nc3cc(OC(F)F)c(OC(F)F)cc3s2)c(N[C@@H]2C[C@H](CO)[C@H]3OC(C)(C)O[C@H]32)n1` [Example 1001]: the 90% effect concentration (EC90) was more than 5 µM.

As to `Cc1cccc(Nc2nc(C)c(-c3nc4ccccc4s3)c(N[C@@H]3C[C@H](CO)[C@@H](O)[C@H]3O)n2)c1` [Example 1046], the EC90 is 0.5 to 5 µM.

The assay is the same for the next values; noted with them: Hepatitis C virus, 72 h, HCV replicon cells, replicon RNA level by real time PCR, harvested day 3; read-out: EC90 (μM) range.
Turning to `Cc1nc(NC2CC2)nc(N[C@@H]2CC[C@@H](O)[C@@]2(C)O)c1-c1nc2cnccc2s1` [Example 1820], the EC90 fell in the range of 0.5 to 5 µM.

With `Cc1nc(NCC(F)(F)F)nc(N[C@@H]2C[C@H](CO)[C@@H](O)[C@H]2O)c1-c1nc2ccccc2o1` [Example 1509], the EC90 was less than 0.5 µM.

With `CCNC(=O)OC[C@H]1C[C@@H](Nc2nc(NCC3CC3)nc(C)c2-c2nc3ccccc3s2)[C@H](O)[C@@H]1O` [Example 1629], the EC90 was 0.5 to 5 µM.

Turning to `Cc1nc(C(N)=O)nc(N[C@@H]2C[C@H](CO)[C@H]3OC(C)(C)O[C@H]32)c1-c1nc2ccccc2s1` [Example 1902], the EC90 was more than 5 µM.

For `Cc1nc(NCC(F)(F)F)nc(N[C@@H]2C[C@H](CN(CC3CC3)S(C)(=O)=O)[C@@H](O)[C@H]2O)c1-c1nc2ccccc2s1` [Example 1395], the EC90 was less than 0.5 µM.

Take `COCCNc1nc(C)c(-c2cc3ccccc3s2)c(N[C@@H]2C[C@H](CO)[C@@H](O)[C@H]2O)n1` [Example 1601]: the 90% effect concentration (EC90) is more than 5 µM.

In the case of `Cc1ccc([C@@H](C)Nc2nc(C)c(-c3nc4c(CC(C)C)nccc4s3)c(N[C@@H]3C[C@H](CO)[C@@H](O)[C@H]3O)n2)cc1` [Example 1372], the EC90 was less than 0.5 µM.

With `CCN(C[C@H]1C[C@@H](Nc2nc(NCC(F)(F)F)nc(C)c2-c2nc3ccccc3s2)[C@H](O)[C@@H]1O)C(=O)OC` [Example 1391], the EC90 is less than 0.5 µM.

Turning to `Cc1nc(NCCc2cccs2)nc(N[C@@H]2C[C@H](CO)[C@@H](O)[C@H]2O)c1-c1nc2cnccc2s1` [Example 1806], the EC90 was more than 5 µM.

`Cc1nc(NCC2CC2)nc(N[C@@H]2C[C@H](C)[C@@H](O)[C@H]2O)c1-c1nc2cnccc2s1` [Example 1634]: the 90% effect concentration (EC90) was less than 0.5 µM.

For `CCOc1nccc2sc(-c3c(C)nc(N[C@H](C)c4ccc(C)cc4)nc3N[C@@H]3C[C@H](CO)[C@@H](O)[C@H]3O)nc12` [Example 1343], the EC90 was less than 0.5 µM.
